In patent US20230017045A1, “PYRIDINE AND PYRIMIDINE CARBOXYLATE HERBICIDES AND METHODS OF USE THEREOF” (Dow AgroSciences LLC, priority 2017, published 2023):

System: test plant species
Experiment: Post-emergent herbicidal activity test (greenhouse, foliar spray, visual growth reduction)
Format: in vivo
Settings: post-emergence, 336 h, ALOMY: blackgrass (Alopecurus myosuroides), 140 g ai/ha, 14 days after application, read-out: Visual Growth Reduction (%) 14 Days After Application, ALOMY
Procedure, shortened: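 Scoring used a 0 to 100 percent visual scale of growth reduction against solvent-treated controls, read 14 d after spraying. Applications went onto plants at first or second true leaf stage, 187 L/ha, with crop oil concentrate and X-77 surfactant in the carrier. Post-treatment watering was by subirrigation to avoid wash-off.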

| SMILES | pest or weed control at 140 g/ha [%] |
| --- | --- |
| COC(=O)c1nc(-c2ccc(C(F)(F)F)cc2Cl)ccc1OC [F2, Methyl 6-(2-chloro-4-4-(trifluoromethyl)phenyl)-3-methoxypicolinate] | 0 to 29 |
| COC(=O)c1nc(-c2ccc(C3CC3(F)F)cc2Cl)ccc1Cl (stereo not drawn) [F13, methyl 3-chloro-6-(2-chloro-4-(2,2 difluorocyclopropyl)phenyl) picolinate] | 0 to 29 |

Same assay, conditions: post-emergence, 336 h, AMARE: redroot pigweed (Amaranthus retroflexus), 140 g ai/ha, 14 days after application, read-out: Visual Growth Reduction (%) 14 Days After Application, AMARE

| SMILES | pest or weed control at 140 g/ha [%] |
| --- | --- |
| COC(=O)c1nc(-c2ccc(C(F)(F)F)cc2Cl)ccc1OC [F2, Methyl 6-(2-chloro-4-4-(trifluoromethyl)phenyl)-3-methoxypicolinate] | 60 to 74 |
| COC(=O)c1nc(-c2ccc(C3CC3(F)F)cc2Cl)ccc1Cl (stereo not drawn) [F13, methyl 3-chloro-6-(2-chloro-4-(2,2 difluorocyclopropyl)phenyl) picolinate] | 75 to 84 |

Same assay, conditions: post-emergence, 336 h, AVEFA: wild oat (Avena fatua), 140 g ai/ha, 14 days after application, read-out: Visual Growth Reduction (%) 14 Days After Application, AVEFA

| SMILES | pest or weed control at 140 g/ha [%] |
| --- | --- |
| COC(=O)c1nc(-c2ccc(C(F)(F)F)cc2Cl)ccc1OC [F2, Methyl 6-(2-chloro-4-4-(trifluoromethyl)phenyl)-3-methoxypicolinate] | 0 to 29 |
| COC(=O)c1nc(-c2ccc(C3CC3(F)F)cc2Cl)ccc1Cl (stereo not drawn) [F13, methyl 3-chloro-6-(2-chloro-4-(2,2 difluorocyclopropyl)phenyl) picolinate] | 0 to 29 |

Same assay, conditions: post-emergence, 336 h, CHEAL: lambsquarters (Chenopodium album), 140 g ai/ha, 14 days after application, read-out: Visual Growth Reduction (%) 14 Days After Application, CHEAL

| SMILES | pest or weed control at 140 g/ha [%] |
| --- | --- |
| COC(=O)c1nc(-c2ccc(C(F)(F)F)cc2Cl)ccc1OC [F2, Methyl 6-(2-chloro-4-4-(trifluoromethyl)phenyl)-3-methoxypicolinate] | 0 to 29 |
| COC(=O)c1nc(-c2ccc(C3CC3(F)F)cc2Cl)ccc1Cl (stereo not drawn) [F13, methyl 3-chloro-6-(2-chloro-4-(2,2 difluorocyclopropyl)phenyl) picolinate] | 85 to 94 |

Same assay, conditions: post-emergence, 336 h, CIRAR: canada thistle (Cirsium arvense), 140 g ai/ha, 14 days after application, read-out: Visual Growth Reduction (%) 14 Days After Application, CIRAR

| SMILES | pest or weed control at 140 g/ha [%] |
| --- | --- |
| COC(=O)c1nc(-c2ccc(C(F)(F)F)cc2Cl)ccc1OC [F2, Methyl 6-(2-chloro-4-4-(trifluoromethyl)phenyl)-3-methoxypicolinate] | 0 to 29 |
| COC(=O)c1nc(-c2ccc(C3CC3(F)F)cc2Cl)ccc1Cl (stereo not drawn) [F13, methyl 3-chloro-6-(2-chloro-4-(2,2 difluorocyclopropyl)phenyl) picolinate] | 85 to 94 |

Same assay, conditions: post-emergence, 336 h, CYPES: yellow nutsedge (Cyperus esculentus), 140 g ai/ha, 14 days after application, read-out: Visual Growth Reduction (%) 14 Days After Application, CYPES

| SMILES | pest or weed control at 140 g/ha [%] |
| --- | --- |
| COC(=O)c1nc(-c2ccc(C(F)(F)F)cc2Cl)ccc1OC [F2, Methyl 6-(2-chloro-4-4-(trifluoromethyl)phenyl)-3-methoxypicolinate] | 0 to 29 |
| COC(=O)c1nc(-c2ccc(C3CC3(F)F)cc2Cl)ccc1Cl (stereo not drawn) [F13, methyl 3-chloro-6-(2-chloro-4-(2,2 difluorocyclopropyl)phenyl) picolinate] | 0 to 29 |

Same assay, conditions: post-emergence, 336 h, DIGSA: crabgrass (Digitaria sanguinalis), 140 g ai/ha, 14 days after application, read-out: Visual Growth Reduction (%) 14 Days After Application, DIGSA

| SMILES | pest or weed control at 140 g/ha [%] |
| --- | --- |
| COC(=O)c1nc(-c2ccc(C(F)(F)F)cc2Cl)ccc1OC [F2, Methyl 6-(2-chloro-4-4-(trifluoromethyl)phenyl)-3-methoxypicolinate] | 85 to 94 |
| COC(=O)c1nc(-c2ccc(C3CC3(F)F)cc2Cl)ccc1Cl (stereo not drawn) [F13, methyl 3-chloro-6-(2-chloro-4-(2,2 difluorocyclopropyl)phenyl) picolinate] | 0 to 29 |

Same assay, conditions: post-emergence, 336 h, barnyardgrass (Echinochloa crus-galli), 14 Days After Application, 140 g ai/ha, read-out: Visual Growth Reduction (%) ECHCG

| SMILES | pest or weed control at 140 g/ha [%] |
| --- | --- |
| COC(=O)c1nc(-c2ccc(C(F)(F)F)cc2Cl)ccc1OC [F2, Methyl 6-(2-chloro-4-4-(trifluoromethyl)phenyl)-3-methoxypicolinate] | 60 to 74 |
| COC(=O)c1nc(-c2ccc(C3CC3(F)F)cc2Cl)ccc1Cl (stereo not drawn) [F13, methyl 3-chloro-6-(2-chloro-4-(2,2 difluorocyclopropyl)phenyl) picolinate] | 0 to 29 |

Same assay, conditions: post-emergence, 336 h, common chickweed (Stellaria media), 14 Days After Application, 140 g ai/ha, read-out: Visual Growth Reduction (%) STEME

| SMILES | pest or weed control at 140 g/ha [%] |
| --- | --- |
| COC(=O)c1nc(-c2ccc(C(F)(F)F)cc2Cl)ccc1OC [F2, Methyl 6-(2-chloro-4-4-(trifluoromethyl)phenyl)-3-methoxypicolinate] | 0 to 29 |
| COC(=O)c1nc(-c2ccc(C3CC3(F)F)cc2Cl)ccc1Cl (stereo not drawn) [F13, methyl 3-chloro-6-(2-chloro-4-(2,2 difluorocyclopropyl)phenyl) picolinate] | 0 to 29 |

Same assay, conditions: post-emergence, 336 h, giant foxtail (Setaria faberi), 14 Days After Application, 140 g ai/ha, read-out: Visual Growth Reduction (%) SETFA

| SMILES | pest or weed control at 140 g/ha [%] |
| --- | --- |
| COC(=O)c1nc(-c2ccc(C(F)(F)F)cc2Cl)ccc1OC [F2, Methyl 6-(2-chloro-4-4-(trifluoromethyl)phenyl)-3-methoxypicolinate] | 30 to 44 |
| COC(=O)c1nc(-c2ccc(C3CC3(F)F)cc2Cl)ccc1Cl (stereo not drawn) [F13, methyl 3-chloro-6-(2-chloro-4-(2,2 difluorocyclopropyl)phenyl) picolinate] | 0 to 29 |

Same assay, conditions: post-emergence, 336 h, ivy-leaf morning glory (Ipomoea hederacea), 14 Days After Application, 140 g ai/ha, read-out: Visual Growth Reduction (%) IPOHE

| SMILES | pest or weed control at 140 g/ha [%] |
| --- | --- |
| COC(=O)c1nc(-c2ccc(C(F)(F)F)cc2Cl)ccc1OC [F2, Methyl 6-(2-chloro-4-4-(trifluoromethyl)phenyl)-3-methoxypicolinate] | 85 to 94 |
| COC(=O)c1nc(-c2ccc(C3CC3(F)F)cc2Cl)ccc1Cl (stereo not drawn) [F13, methyl 3-chloro-6-(2-chloro-4-(2,2 difluorocyclopropyl)phenyl) picolinate] | 95 to 100 |

Same assay, conditions: post-emergence, 336 h, johnsongrass (Sorghum vulgare), 14 Days After Application, 140 g ai/ha, read-out: Visual Growth Reduction (%) SORVU

| SMILES | pest or weed control at 140 g/ha [%] |
| --- | --- |
| COC(=O)c1nc(-c2ccc(C(F)(F)F)cc2Cl)ccc1OC [F2, Methyl 6-(2-chloro-4-4-(trifluoromethyl)phenyl)-3-methoxypicolinate] | 95 to 100 |
| COC(=O)c1nc(-c2ccc(C3CC3(F)F)cc2Cl)ccc1Cl (stereo not drawn) [F13, methyl 3-chloro-6-(2-chloro-4-(2,2 difluorocyclopropyl)phenyl) picolinate] | 60 to 74 |

Same assay, conditions: post-emergence, 336 h, kochia (Bassia scoparia), 14 Days After Application, 140 g ai/ha, read-out: Visual Growth Reduction (%) KCHSC

| SMILES | pest or weed control at 140 g/ha [%] |
| --- | --- |
| COC(=O)c1nc(-c2ccc(C(F)(F)F)cc2Cl)ccc1OC [F2, Methyl 6-(2-chloro-4-4-(trifluoromethyl)phenyl)-3-methoxypicolinate] | 0 to 29 |
| COC(=O)c1nc(-c2ccc(C3CC3(F)F)cc2Cl)ccc1Cl (stereo not drawn) [F13, methyl 3-chloro-6-(2-chloro-4-(2,2 difluorocyclopropyl)phenyl) picolinate] | 60 to 74 |

Same assay, conditions: post-emergence, 336 h, rice (Oryza sativa), 14 Days After Application, 140 g ai/ha, read-out: Visual Growth Reduction (%) ORYSA

| SMILES | pest or weed control at 140 g/ha [%] |
| --- | --- |
| COC(=O)c1nc(-c2ccc(C(F)(F)F)cc2Cl)ccc1OC [F2, Methyl 6-(2-chloro-4-4-(trifluoromethyl)phenyl)-3-methoxypicolinate] | 0 to 29 |
| COC(=O)c1nc(-c2ccc(C3CC3(F)F)cc2Cl)ccc1Cl (stereo not drawn) [F13, methyl 3-chloro-6-(2-chloro-4-(2,2 difluorocyclopropyl)phenyl) picolinate] | 0 to 29 |

Same assay, conditions: post-emergence, 336 h, wheat, spring (Triticum aestivum), 14 Days After Application, 140 g ai/ha, read-out: Visual Growth Reduction (%) TRZAS

| SMILES | pest or weed control at 140 g/ha [%] |
| --- | --- |
| COC(=O)c1nc(-c2ccc(C(F)(F)F)cc2Cl)ccc1OC [F2, Methyl 6-(2-chloro-4-4-(trifluoromethyl)phenyl)-3-methoxypicolinate] | 45 to 59 |
| COC(=O)c1nc(-c2ccc(C3CC3(F)F)cc2Cl)ccc1Cl (stereo not drawn) [F13, methyl 3-chloro-6-(2-chloro-4-(2,2 difluorocyclopropyl)phenyl) picolinate] | 0 to 29 |
